In the supplement of paper PMC10307832:

Tests used:
Experiment in all cases: relative viability (nuclei count vs DMSO), 5 days (fraction); higher = more cells survive
Dasatinib + Vorinostat = compound: Cc1nc(Nc2ncc(C(=O)Nc3c(C)cccc3Cl)s2)cc(N2CCN(CCO)CC2)n1 [Dasatinib] + O=C(CCCCCCC(=O)Nc1ccccc1)NO [Vorinostat] (partner 1 µM)
Outline: (§1)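 Five library-drug doses in √10 steps were combined with a fixed anchor-drug dose, or a single drug was given alone, by pin tool to lung cancer cell lines in 1536-well plates the day after seeding. Nuclei were stained and counted after 5 days. Relative viability is the nuclei count in treated wells over that in vehicle wells, taken as the median of duplicate plates.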

XMD13-2 + Trametinib = compound: C1CC1C(=O)NC2=NNC3=C2C=CC(=C3)C4=CC(=CC=C4)C(=O)NC5CC5 [XMD13-2] + CC(=O)Nc1cccc(-n2c(=O)n(C3CC3)c(=O)c3c(Nc4ccc(I)cc4F)n(C)c(=O)c(C)c32)c1 [Trametinib] (partner 0.02 µM)
Outline: as §1

Dasatinib + Foretinib = compound: Cc1nc(Nc2ncc(C(=O)Nc3c(C)cccc3Cl)s2)cc(N2CCN(CCO)CC2)n1 [Dasatinib] + COc1cc2c(Oc3ccc(NC(=O)C4(C(=O)Nc5ccc(F)cc5)CC4)cc3F)ccnc2cc1OCCCN1CCOCC1 [Foretinib] (partner 0.25 µM)
Outline: as §1

ALW-II-49-7 + Linsitinib = compound: Cc1ccc(C(=O)Nc2cccc(C(F)(F)F)c2)cc1Nc1cncc(C(N)=O)c1 [ALW-II-49-7] + C[C@]1(O)C[C@@H](c2nc(-c3ccc4ccc(-c5ccccc5)nc4c3)c3c(N)nccn32)C1 [Linsitinib] (partner 1 µM)
Outline: as §1

Cell Line	relative viability (Dasatinib + Vorinostat; first compound 0.005 µM)	relative viability (Dasatinib + Vorinostat; first compound 0.01581 µM)	relative viability (Dasatinib + Vorinostat; first compound 0.05 µM)	relative viability (Dasatinib + Vorinostat; first compound 0.1581 µM)	relative viability (Dasatinib + Vorinostat; first compound 0.5 µM)	relative viability (XMD13-2 + Trametinib; first compound 0.05 µM)	relative viability (XMD13-2 + Trametinib; first compound 0.1581 µM)	relative viability (XMD13-2 + Trametinib; first compound 0.5 µM)	relative viability (XMD13-2 + Trametinib; first compound 1.581 µM)	relative viability (XMD13-2 + Trametinib; first compound 5 µM)	relative viability (Dasatinib + Foretinib; first compound 0.005 µM)	relative viability (Dasatinib + Foretinib; first compound 0.01581 µM)	relative viability (Dasatinib + Foretinib; first compound 0.05 µM)	relative viability (Dasatinib + Foretinib; first compound 0.1581 µM)	relative viability (Dasatinib + Foretinib; first compound 0.5 µM)	relative viability (ALW-II-49-7 + Linsitinib; first compound 0.08 µM)	relative viability (ALW-II-49-7 + Linsitinib; first compound 0.253 µM)	relative viability (ALW-II-49-7 + Linsitinib; first compound 0.8 µM)	relative viability (ALW-II-49-7 + Linsitinib; first compound 2.53 µM)	relative viability (ALW-II-49-7 + Linsitinib; first compound 8 µM)
HCC-366	0.377	0.225	0.312	0.238	0.22	0.413	0.334	0.412	0.286	0.331	0.739	0.588	0.543	0.563	0.449	0.68	0.636	0.698	0.682	0.791
NCI-H1355	0.618	0.54	0.655	0.445	0.331	0.544	0.428	0.457	0.42	0.428	1.03	0.719	0.908	0.722	0.644	0.731	0.872	0.797	0.752	0.758
SW 1573	0.968		0.649	0.538	0.491	0.585	0.53	0.674	0.533	0.536	1.05	0.746	0.783	0.695	0.525	0.867	0.906	0.903	0.795	0.768
NCI-H661	0.927	0.791	0.851	0.813	0.74	0.538	0.614	0.665	0.615	0.409	1.02	1.03	0.964	0.735	0.599	0.631	0.534	0.493		0.536
LU99A	0.464	0.448	0.515	0.366	0.288	0.581	0.532	0.546	0.54	0.352	0.849		0.723	0.59	0.383	0.569	0.464	0.573	0.421	0.589
LCLC-97TM1	0.91	0.829	0.905	0.523	0.35	0.225	0.198	0.217	0.17	0.179	0.968	0.955	1.04	0.78	0.461	0.19	0.171	0.174	0.176	0.155
LC-2-ad	0.723	0.675	0.75	0.493	0.337	0.934	0.938	0.961	0.936	0.93	1.04	0.802	0.473	0.369	0.293	0.834	0.86	0.764	0.86	0.836
NCI-H1395	0.722	0.762	0.515	0.291	0.387	1.05	1.01	1.06	0.966	1.04	1	1.08	1.04	0.585	0.331	1.09	1.22	1.11	0.305	1.08
NCI-H2228	0.618	0.564	0.333	0.387	0.388	0.672	0.577	0.517	0.602	0.634	0.853	0.614	0.766	0.51	0.407	1.17	0.677	0.8	0.644	0.611
NCI-H1944	0.573	0.527	0.452	0.196	0.169	0.486	0.393	0.429	0.458	0.411	0.849	0.684	0.701	0.291	0.21	1.18	1.26	1.3	1.29	1.2
HOP-62	0.738	0.606	0.642	0.293	0.132	0.397	0.4	0.443	0.426	0.407	1.18	1.12	1	0.518	0.197	0.889	1.13	1.03	0.866	0.813
NCI-H2347	0.422	0.298	0.363	0.263	0.238	0.294	0.268	0.211	0.291	0.265	0.625	0.504	0.436	0.378	0.495	1	0.974	1.08	0.868	0.737
NCI-H2087	0.954	0.494	0.778	0.714	0.156	0.194	0.196	0.198	0.198	0.23	1.2	1.16	1.31	0.756	0.464	1.14	0.962	0.871	0.896	0.919
